According to PubChem BioAssay (NCI):
Values joined by “and” are separate entries in the source; they are usually repeats but may differ in a detail not shown here. Equal values may be shown once.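 A five-concentration, 48-hour dose response in 96-well plates underlies each endpoint, interpolated linearly between surrounding concentrations. GI50: concentration for 50% inhibition of growth. TGI denotes the concentration required for complete inhibition of growth.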

Key:
Assay in all cases: NCI anticancer screen, dose series, 48 h
RXF 393 renal = tested on: RXF 393 renal
NCI-H522 lung = tested on: NCI-H522 lung
LOX IMVI melanoma = tested on: LOX IMVI melanoma
SW-620 colon = tested on: SW-620 colon
IGROV1 ovarian = tested on: IGROV1 ovarian
MALME-3M melanoma = tested on: MALME-3M melanoma
DU-145 prostate = tested on: DU-145 prostate
NCI-H23 lung = tested on: NCI-H23 lung
HCT-116 colon = tested on: HCT-116 colon
MDA-N = tested on: MDA-N
CAKI-1 renal = tested on: CAKI-1 renal
MDA-MB-231 breast = tested on: MDA-MB-231 breast
UACC-257 melanoma = tested on: UACC-257 melanoma
HOP-62 NSCLC = tested on: HOP-62 NSCLC
K-562 leukemia = tested on: K-562 leukemia
HOP-92 NSCLC = tested on: HOP-92 NSCLC
M14 melanoma = tested on: M14 melanoma
RPMI-8226 leukemia = tested on: RPMI-8226 leukemia
OVCAR-4 ovarian = tested on: OVCAR-4 ovarian
HS 578T breast = tested on: HS 578T breast
HT29 colon = tested on: HT29 colon
KM12 colon = tested on: KM12 colon
OVCAR-8 ovarian = tested on: OVCAR-8 ovarian
SNB-19 CNS = tested on: SNB-19 CNS
A498 renal = tested on: A498 renal
SK-MEL-5 melanoma = tested on: SK-MEL-5 melanoma
HCT-15 colon = tested on: HCT-15 colon
SN12C renal = tested on: SN12C renal
HCC-2998 colon = tested on: HCC-2998 colon
SK-MEL-2 melanoma = tested on: SK-MEL-2 melanoma
MOLT-4 leukemia = tested on: MOLT-4 leukemia
786-0 renal = tested on: 786-0 renal
OVCAR-3 ovarian = tested on: OVCAR-3 ovarian
NCI/ADR-RES ovarian = tested on: NCI/ADR-RES ovarian
PC-3 prostate = tested on: PC-3 prostate
BT-549 breast = tested on: BT-549 breast
SK-OV-3 ovarian = tested on: SK-OV-3 ovarian
CCRF-CEM leukemia = tested on: CCRF-CEM leukemia
SF-268 CNS = tested on: SF-268 CNS
U251 CNS = tested on: U251 CNS
HL-60(TB) leukemia = tested on: HL-60(TB) leukemia
SF-539 CNS = tested on: SF-539 CNS
MCF7 breast = tested on: MCF7 breast
TK-10 renal = tested on: TK-10 renal
NCI-H226 lung = tested on: NCI-H226 lung
UACC-62 melanoma = tested on: UACC-62 melanoma
ACHN renal = tested on: ACHN renal
SR leukemia = tested on: SR leukemia
OVCAR-5 ovarian = tested on: OVCAR-5 ovarian
MDA-MB-435 = tested on: MDA-MB-435
EKVX NSCLC = tested on: EKVX NSCLC
SK-MEL-28 melanoma = tested on: SK-MEL-28 melanoma
SF-295 CNS = tested on: SF-295 CNS
COLO 205 colon = tested on: COLO 205 colon
NCI-H460 lung = tested on: NCI-H460 lung
T-47D breast = tested on: T-47D breast
UO-31 renal = tested on: UO-31 renal
A549 NSCLC = tested on: A549 NSCLC
SNB-75 CNS = tested on: SNB-75 CNS
KM20L2 colon = tested on: KM20L2 colon
XF 498 CNS = tested on: XF 498 CNS

C[C@H](CCc1nc(C#N)c(N)o1)[C@H]1CC[C@H]2[C@@H]3[C@@H](O)CC4C[C@@H](O)CC[C@]4(C)[C@H]3C[C@@H](O)[C@]12C (some centres undefined)
TGI (RXF 393 renal): 35.9 µM | TGI (NCI-H522 lung): 18.4 µM | TGI (LOX IMVI melanoma): 29.2 µM | TGI (SW-620 colon): 55 µM | TGI (IGROV1 ovarian): 33.2 µM | TGI (MALME-3M melanoma): 29.3 µM | TGI (DU-145 prostate): > 76.3 µM | TGI (NCI-H23 lung): 58.5 µM | TGI (HCT-116 colon): 50 µM | TGI (MDA-N): 77.8 µM | TGI (CAKI-1 renal): > 100 µM | TGI (MDA-MB-231 breast): 67.1 µM | TGI (UACC-257 melanoma): 50.6 µM | TGI (HOP-62 NSCLC): > 54.4 µM | TGI (K-562 leukemia): 86.4 µM | TGI (HOP-92 NSCLC): 67 µM | TGI (M14 melanoma): > 75.8 µM | TGI (RPMI-8226 leukemia): 28.6 µM | TGI (OVCAR-4 ovarian): > 87.6 µM | TGI (HS 578T breast): 62.6 µM | TGI (HT29 colon): 45.6 µM | TGI (KM12 colon): 53.8 µM | TGI (OVCAR-8 ovarian): 41.7 µM | TGI (SNB-19 CNS): 57.5 µM | TGI (A498 renal): > 100 µM | TGI (SK-MEL-5 melanoma): 40.9 µM | TGI (HCT-15 colon): > 93 µM | TGI (SN12C renal): > 79.6 µM | TGI (HCC-2998 colon): 36.5 µM | TGI (SK-MEL-2 melanoma): 45.1 µM | TGI (MOLT-4 leukemia): > 59.7 µM | TGI (786-0 renal): > 86.7 µM | TGI (OVCAR-3 ovarian): > 56.9 µM | TGI (NCI/ADR-RES ovarian): > 100 µM | TGI (PC-3 prostate): 49.1 µM | TGI (BT-549 breast): 25.3 µM | TGI (SK-OV-3 ovarian): 73.8 µM | TGI (CCRF-CEM leukemia): > 25.2 µM | TGI (SF-268 CNS): > 91.5 µM | TGI (U251 CNS): 49.5 µM | TGI (HL-60(TB) leukemia): > 26.9 µM | TGI (SF-539 CNS): 59.5 µM | TGI (MCF7 breast): > 95.4 µM | TGI (TK-10 renal): > 68.1 µM | TGI (NCI-H226 lung): 62.9 µM | TGI (UACC-62 melanoma): 30.5 µM | TGI (ACHN renal): > 90 µM | TGI (SR leukemia): > 61.8 µM | TGI (OVCAR-5 ovarian): 58.3 µM | TGI (MDA-MB-435): 48.8 µM | TGI (EKVX NSCLC): 98.1 µM | TGI (SK-MEL-28 melanoma): 47.2 µM | TGI (SF-295 CNS): 53.2 µM | TGI (COLO 205 colon): 40.5 µM | TGI (NCI-H460 lung): 54.9 µM | TGI (T-47D breast): 85.6 µM | TGI (UO-31 renal): 61.8 µM | TGI (A549 NSCLC): > 100 µM | TGI (SNB-75 CNS): 54 µM

CO[C@H](/C(C)=C/C=C/C(C)=C/c1coc(C)n1)[C@H](C)[C@H]1C[C@@H](O)[C@@]2(C)O[C@H]2/C=C/[C@@H](C)[C@@H]2C[C@@H](CC(=O)O2)C[C@H]2O[C@@H]2C(=O)O1
TGI (KM20L2 colon): 0.5 nM | TGI (MDA-N): 2.15e-06 µM | GI50 (MDA-MB-231 breast): 0.942 pM | TGI (UACC-257 melanoma): 5 µM and 50 µM and 11.4 µM | GI50 (M14 melanoma): 0.1 pM | GI50 (786-0 renal): 0.106 pM | TGI (PC-3 prostate): 2.37e-06 µM | GI50 (BT-549 breast): 0.0133 nM | TGI (BT-549 breast): 2.81 µM | GI50 (TK-10 renal): 42 nM | TGI (TK-10 renal): > 69.5 µM | TGI (ACHN renal): > 64 µM | TGI (SR leukemia): > 100 µM | TGI (XF 498 CNS): 2250 nM and 576 nM | TGI (OVCAR-5 ovarian): 3.99 µM and 31 µM and > 31.6 µM
